According to the NIST ThermoML archive (doi:10.1021/je0501639):

Assays:
[1] = xn = mol fraction of the nth substance listed; conditions: 100.8 kPa, Liquid
[2] = refractive index (Na D-line) (dimensionless); xn = mol fraction of the nth substance listed; conditions: 100.8 kPa, Liquid, Standard Abbe refractometry

CC(C)(C)O [2-methylpropan-2-ol] + CC(C)CC(C)(C)C
Conditions | mass density, 298.15 K [kg/m3] | mass density, 308.15 K [kg/m3] | mass density, 318.15 K [kg/m3] | refractive index, 298.15 K | refractive index, 308.15 K | refractive index, 318.15 K | viscosity, 298.15 K [mPa·s] | viscosity, 308.15 K [mPa·s] | viscosity, 318.15 K [mPa·s]
[1], x1 = 0.05 | 689.77 | 681.15 | 672.12 | – | – | – | 0.483 | 0.425 | 0.377
[1], x1 = 0.1 | 691.89 | 683.25 | 674.11 | – | – | – | 0.509 | 0.449 | 0.4
[1], x1 = 0.15 | 694.45 | 685.62 | 676.56 | – | – | – | 0.515 | 0.447 | 0.394
[1], x1 = 0.2 | 697.14 | 688.28 | 679.2 | – | – | – | 0.553 | 0.478 | 0.413
[1], x1 = 0.25 | 700.02 | 691.11 | 681.96 | – | – | – | 0.564 | 0.48 | 0.42
[1], x1 = 0.3 | 703.12 | 694.14 | 684.92 | – | – | – | 0.598 | 0.522 | 0.449
[1], x1 = 0.35 | 706.4 | 697.38 | 688.11 | – | – | – | 0.614 | 0.523 | 0.45
[1], x1 = 0.4 | 709.87 | 700.8 | 691.43 | – | – | – | 0.665 | 0.564 | 0.48
[1], x1 = 0.45 | 713.52 | 704.42 | 694.99 | – | – | – | 0.698 | 0.59 | 0.504
[1], x1 = 0.5 | 717.43 | 708.24 | 698.77 | – | – | – | 0.765 | 0.633 | 0.542
[1], x1 = 0.55 | 721.62 | 712.37 | 702.81 | – | – | – | 0.805 | 0.672 | 0.564
[1], x1 = 0.6 | 726.19 | 716.85 | 707.21 | – | – | – | 0.912 | 0.726 | 0.614
[1], x1 = 0.65 | 731.11 | 721.69 | 711.98 | – | – | – | 0.984 | 0.786 | 0.649
[1], x1 = 0.7 | 736.55 | 727.03 | 717.21 | – | – | – | 1.107 | 0.866 | 0.706
[1], x1 = 0.75 | 742.44 | 732.81 | 722.88 | – | – | – | 1.297 | 0.994 | 0.798
[1], x1 = 0.8 | 748.88 | 739.1 | 729.03 | – | – | – | 1.557 | 1.14 | 0.889
[1], x1 = 0.85 | 755.87 | 745.89 | 735.65 | – | – | – | 1.895 | 1.332 | 1.028
[1], x1 = 0.9 | 763.54 | 753.43 | 743.04 | – | – | – | 2.426 | 1.622 | 1.164
[1], x1 = 0.95 | 771.9 | 761.62 | 751.07 | – | – | – | 3.172 | 2.02 | 1.398
[1], x1 = 1 | 780.99 | 770.7 | 760.05 | – | – | – | 4.43 | 2.622 | 1.708
[2], x1 = 0.05 | – | – | – | 1.38834 | 1.38325 | 1.37818 | – | – | –
[2], x1 = 0.1 | – | – | – | 1.38784 | 1.38271 | 1.37755 | – | – | –
[2], x1 = 0.15 | – | – | – | 1.38735 | 1.38219 | 1.37703 | – | – | –
[2], x1 = 0.2 | – | – | – | 1.38693 | 1.38177 | 1.37655 | – | – | –
[2], x1 = 0.25 | – | – | – | 1.3865 | 1.38135 | 1.37611 | – | – | –
[2], x1 = 0.3 | – | – | – | 1.38612 | 1.38095 | 1.3757 | – | – | –
[2], x1 = 0.35 | – | – | – | 1.38573 | 1.38055 | 1.37528 | – | – | –
[2], x1 = 0.4 | – | – | – | 1.38537 | 1.38021 | 1.37491 | – | – | –
[2], x1 = 0.45 | – | – | – | 1.38505 | 1.37986 | 1.37458 | – | – | –
[2], x1 = 0.5 | – | – | – | 1.38473 | 1.37955 | 1.37427 | – | – | –
[2], x1 = 0.55 | – | – | – | 1.38445 | 1.37926 | 1.37397 | – | – | –
[2], x1 = 0.6 | – | – | – | 1.3842 | 1.37903 | 1.37371 | – | – | –
[2], x1 = 0.65 | – | – | – | 1.38398 | 1.37881 | 1.37348 | – | – | –
[2], x1 = 0.7 | – | – | – | 1.38381 | 1.37862 | 1.37331 | – | – | –
[2], x1 = 0.75 | – | – | – | 1.38371 | 1.3785 | 1.37317 | – | – | –
[2], x1 = 0.8 | – | – | – | 1.38368 | 1.37847 | 1.37313 | – | – | –
[2], x1 = 0.85 | – | – | – | 1.38381 | 1.37858 | 1.37323 | – | – | –
[2], x1 = 0.9 | – | – | – | 1.38405 | 1.37879 | 1.37339 | – | – | –
[2], x1 = 0.95 | – | – | – | 1.38436 | 1.37914 | 1.37372 | – | – | –
[2], x1 = 1 | – | – | – | 1.38481 | 1.3796 | 1.37416 | – | – | –
